Results published in ChEMBL document CHEMBL1201862, “PubChem BioAssay data set” (2004).
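Dose response: 5 concentrations. Exposure: 48 h. Format: 96-well plates. Endpoint: linear interpolation; highest concentration if not reached. GI50 is the concentration that inhibits growth by half.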 Active and inactive are the calls of the source. Cut-off read from the data, not from the text of the source: active = GI50 up to about 1.1 µM and inactive = higher.

Experiments:
Test in all cases: growth of human tumour cells (NCI), 48 h
NCI-H460 = system: NCI-H460
SF-295 = system: SF-295
HCT-15 = system: HCT-15
U-251 = system: U-251
SK-OV-3 = system: SK-OV-3
MCF7 = system: MCF7
A498 = system: A498
HCT-116 = system: HCT-116
UO-31 = system: UO-31
SW-620 = system: SW-620
SNB-75 = system: SNB-75
BT-549 = system: BT-549
NCI-H522 = system: NCI-H522
OVCAR-8 = system: OVCAR-8
SF-268 = system: SF-268
MDA-MB-231 = system: MDA-MB-231
NCI-H23 = system: NCI-H23
CCRF-CEM = system: CCRF-CEM
RPMI-8226 = system: RPMI-8226

SMILES | GI50 (NCI-H460) | GI50 (SF-295) | GI50 (HCT-15) [µM] | GI50 (U-251) | GI50 (SK-OV-3) | GI50 (MCF7) | GI50 (A498) | GI50 (HCT-116) | GI50 (UO-31) | GI50 (SW-620) | GI50 (SNB-75) | GI50 (BT-549) | GI50 (NCI-H522) | GI50 (OVCAR-8) | GI50 (SF-268) | GI50 (MDA-MB-231) | GI50 (NCI-H23) | GI50 (CCRF-CEM) | GI50 (RPMI-8226)
CC1(C)CCc2c(cc3c(c2O)CCC(C)(C)O3)O1 | 57 µM (inactive) | 96.8 µM (inactive) | 64.7 | > 100 µM (inactive) | > 100 µM (inactive) | > 100 µM (inactive) | > 100 µM (inactive) | 61.2 µM (inactive) | > 100 µM (inactive) | > 100 µM (inactive) | 80.5 µM (inactive) | > 100 µM (inactive) | 61.1 µM (inactive) | > 100 µM (inactive) | > 100 µM (inactive) | > 100 µM (inactive) | > 100 µM (inactive) | 67.8 µM (inactive) | –
Cc1ccc(S(=O)(=O)NC(=O)NC(Cc2ccccc2)C(=O)O)cc1 (configuration not stated) | > 100 µM (inactive) | > 100 µM (inactive) | > 100 | > 100 µM (inactive) | > 100 µM (inactive) | > 100 µM (inactive) | – | > 100 µM (inactive) | > 100 µM (inactive) | > 100 µM (inactive) | > 100 µM (inactive) | > 100 µM (inactive) | > 100 µM (inactive) | > 100 µM (inactive) | > 100 µM (inactive) | > 100 µM (inactive) | > 100 µM (inactive) | > 100 µM (inactive) | > 100 µM (inactive)
CC1=CC(=O)/C(=C/NC(=S)Nc2ccc(S(N)(=O)=O)cc2)C(=O)O1 | > 100 µM (inactive) | > 100 µM (inactive) | > 100 | > 100 µM (inactive) | > 100 µM (inactive) | > 100 µM (inactive) | > 100 µM (inactive) | > 100 µM (inactive) | > 100 µM (inactive) | > 100 µM (inactive) | > 100 µM (inactive) | > 100 µM (inactive) | – | > 100 µM (inactive) | > 100 µM (inactive) | > 100 µM (inactive) | > 100 µM (inactive) | – | –
NS(=O)(=O)c1ccc(NCc2nc3ccccc3[nH]2)cc1 | > 100 µM (inactive) | > 100 µM (inactive) | > 100 | > 100 µM (inactive) | > 100 µM (inactive) | > 100 µM (inactive) | > 100 µM (inactive) | > 100 µM (inactive) | > 100 µM (inactive) | – | > 100 µM (inactive) | > 100 µM (inactive) | > 100 µM (inactive) | > 100 µM (inactive) | > 100 µM (inactive) | > 100 µM (inactive) | > 100 µM (inactive) | – | –
COc1ccc(/C=N/n2c(-c3ccccc3)n[nH]c2=O)cc1 | > 100 µM (inactive) | > 100 µM (inactive) | > 100 | > 100 µM (inactive) | > 100 µM (inactive) | > 100 µM (inactive) | 25.3 µM (inactive) | 74.5 µM (inactive) | 95.3 µM (inactive) | > 100 µM (inactive) | > 100 µM (inactive) | > 100 µM (inactive) | – | > 100 µM (inactive) | > 100 µM (inactive) | > 100 µM (inactive) | > 100 µM (inactive) | > 100 µM (inactive) | > 100 µM (inactive)
C[C@H](CSC(=O)c1ccccc1)C(=O)N1c2ccccc2C[C@H]1C(=O)O | > 10 µM (inactive) | > 100 µM (inactive) | 30.5 | > 100 µM (inactive) | > 100 µM (inactive) | 46 µM (inactive) | > 100 µM (inactive) | 41.2 µM (inactive) | 86.3 µM (inactive) | 35.2 µM (inactive) | 35.3 µM (inactive) | > 100 µM (inactive) | 30.4 µM (inactive) | > 100 µM (inactive) | > 100 µM (inactive) | > 100 µM (inactive) | > 100 µM (inactive) | 32.1 µM (inactive) | –
CC(O)CNC(=O)Nc1c(C(F)(F)F)cc(-c2ccccc2)[nH]c1=O (configuration not stated) | > 100 µM (inactive) | > 100 µM (inactive) | > 100 | > 100 µM (inactive) | > 100 µM (inactive) | > 100 µM (inactive) | > 100 µM (inactive) | > 100 µM (inactive) | > 100 µM (inactive) | > 100 µM (inactive) | – | > 100 µM (inactive) | > 100 µM (inactive) | > 100 µM (inactive) | > 100 µM (inactive) | > 100 µM (inactive) | > 100 µM (inactive) | 13.8 µM (inactive) | –
Cc1ccc(-c2c(C#N)c(-c3ccc(Cl)cc3)c(C#N)c(=O)n2NS(=O)(=O)c2ccc(C)cc2)cc1 | 27.4 µM (inactive) | 24 µM (inactive) | 28.2 | 36.2 µM (inactive) | 22.1 µM (inactive) | 15.2 µM (inactive) | 35 µM (inactive) | 20.5 µM (inactive) | – | 35.8 µM (inactive) | 30.1 µM (inactive) | 23.5 µM (inactive) | 23.1 µM (inactive) | 26.2 µM (inactive) | 26.3 µM (inactive) | 38.5 µM (inactive) | – | 20.7 µM (inactive) | –
COc1ccc(/C=C2\N=C3N(Cc4ccccc4)C=C(N)N3C2=O)cc1 | > 100 µM (inactive) | 61.2 µM (inactive) | > 100 | 30.3 µM (inactive) | 37.2 µM (inactive) | > 100 µM (inactive) | 88.1 µM (inactive) | > 100 µM (inactive) | 46.6 µM (inactive) | > 100 µM (inactive) | 17.5 µM (inactive) | 32.9 µM (inactive) | 49.1 µM (inactive) | 64.6 µM (inactive) | > 100 µM (inactive) | 36.2 µM (inactive) | > 100 µM (inactive) | 89.5 µM (inactive) | –
Clc1ccc(-c2cc3nc4ccccc4nc3o2)cc1 | > 100 µM (inactive) | 58.7 µM (inactive) | > 100 | 29.9 µM (inactive) | 59.4 µM (inactive) | 64.4 µM (inactive) | > 100 µM (inactive) | > 100 µM (inactive) | > 100 µM (inactive) | > 100 µM (inactive) | 15.3 µM (inactive) | 35 µM (inactive) | – | 32.6 µM (inactive) | 63.8 µM (inactive) | > 100 µM (inactive) | > 100 µM (inactive) | > 100 µM (inactive) | > 100 µM (inactive)
COc1ccc(N2C(=O)C3CC4=CC(=O)C[C@H]4[C@H]32)cc1 (some centres not stated) | 58.2 µM (inactive) | > 100 µM (inactive) | 40.9 | 67.9 µM (inactive) | > 100 µM (inactive) | 67.6 µM (inactive) | > 100 µM (inactive) | 20.7 µM (inactive) | 37.2 µM (inactive) | 66.1 µM (inactive) | 93.5 µM (inactive) | 14.9 µM (inactive) | – | 49.4 µM (inactive) | > 100 µM (inactive) | > 100 µM (inactive) | > 100 µM (inactive) | – | 59.8 µM (inactive)
O=C1N2CCN=C2c2ccccc2C1(O)c1ccccc1 (configuration not stated) | > 100 µM (inactive) | > 100 µM (inactive) | > 100 | > 100 µM (inactive) | – | > 100 µM (inactive) | > 100 µM (inactive) | > 100 µM (inactive) | > 100 µM (inactive) | > 100 µM (inactive) | > 100 µM (inactive) | > 100 µM (inactive) | – | > 100 µM (inactive) | > 100 µM (inactive) | > 100 µM (inactive) | > 100 µM (inactive) | > 100 µM (inactive) | > 100 µM (inactive)
